This note sets out measurements from patent publication US20110245197A1, “HYPERSULFATED GLUCOPYRANOSIDES” (OPKO Health, Inc., priority 2010, published 2011).

The test system of the test is allergic sheep (dual bronchoconstrictor responders to Ascaris suum antigen). Kind of test: Antigen-induced change in specific pulmonary airflow resistance (SRL): early (EAR) and late (LAR) airway response in allergic sheep. In kind it is in vivo. On the procedure: Pulmonary airflow resistance was measured by taking allergic sheep previously verified as dual bronchoconstrictor responders to Ascaris suum antigen. The sheep were intubated with a cuffed nasotracheal tube and pulmonary airflow resistance (RL) was measured by the esophageal balloon catheter technique, while thoracic gas volume was measured by body plethysmography. Data were expressed as specific RL (SRL, defined as RL times thoracic gas volume (Vtg)). Airway responsiveness was determined by first securing cumulative dose response curves to inhaled carbachol (a constrictor agonist) by measuring SRL before and after inhalation of buffered saline and after each administration of 10 breaths of increasing concentrations of carbachol (0.25, 0.5, 1.0, 2.0 and 4.0% wt/vol solution). Airway responsiveness was measured by determining the cumulative provocation dose (PD400) of carbachol (in breath units) that increased SRL to 400% above baseline. One breath unit was defined as one breath of 1% carbachol solution.
To illustrate the effectiveness of the formulations according to the invention to treat and alleviate allergen related diseases and conditions, including but not limited to the specific diseases and conditions recited herein, sheep were assessed in multiple experiments which compared various formulations containing no added polymer or additive to animals which were provided formulations comprising a compound of formula I (as compound 1a) along with an optional additive selected from a polymer. To measure pulmonary airflow resistance, the sheep were intubated with a cuffed nasotracheal tube and pulmonary airflow resistance (RL) was measured by the esophageal balloon catheter technique, while thoracic gas volume was measured by body plethysmography. […] Data were expressed as specific RL (SRL defined as RL× thoracic gas volume (Vg).
For airway studies, each animal's baseline airway responsiveness (PD400)) was determined and then, on different experimental days, the test sheep underwent airway challenge with Ascaris suum antigen. […]

Where [1] appears, read: aerosol 0.5 mgs/kg (approximately 20 mgs), thirty minutes before antigen challenge, n=5 (FIG. 11).

aluminum salt of octasulfated sucrose: under setting [1], the LAR % protection was 0% and the “effect on EAR” value was “no significant effect”. For the setting “general statement in the description, supported by FIG. 11”, the “effectiveness (general statement)” value is reported as “not effective”.
